15 molecules from ChEMBL document CHEMBL5113442, “Discovery of agonist-antagonist pairs for the modulation of Ca [2]+ and voltage-gated K+ channels of large conductance that contain beta1 subunits” (Bioorg Med Chem, 2022) can be followed below.

Common to all, as to type: cell-based
The nature of test [1]: Agonist activity at rat BK calcium channel alphabeta1 expressed in CHO cells assessed as increase in current amplitude by automated whole cell patch clamp analysis.
Test [2] has as its system CHO. The test can be described thus: Agonist activity at rat BK calcium channel alphabeta1 expressed in CHO cells assessed as maximal current amplitude by automated whole cell patch clamp analysis. To be noted: filed as agonist.
Test [3] concerns CHO. Briefly: Agonist activity at rat BK calcium channel alphabeta1 expressed in CHO cells assessed as fold increase in current amplitude at 0.0001 to 33.3 uM by automated whole cell patch clamp analysis. Particulars: filed as agonist, dose 0.0001-33.3 µM.
The test system of test [4] is CHO. The test can be described thus: Antagonist activity at rat BK calcium channel alphabeta1 expressed in CHO cells assessed as fold change in current amplitude at 1 uM in presence of compound 1 by automated whole cell patch clamp analysis. To be noted: filed as antagonist.
For test [5], the system named is CHO. The test can be described thus: Antagonist activity at rat BK calcium channel alphabeta1 expressed in CHO cells assessed as decrease in current amplitude at 0.1 to 1 uM in presence of compound 1 by automated whole cell patch clamp analysis. To be noted: filed as antagonist, dose 0.1-1 µM.
Test [6] relates to CHO. The test can be described thus: Antagonist activity at rat BK calcium channel alphabeta1 expressed in CHO cells assessed as fold change in current amplitude at 3 uM in presence of compound 1 by automated whole cell patch clamp analysis. Particulars: filed as antagonist.

Calls of active or inactive are those of the source. The rule behind the calls is not given here.

On to `C/C(=C/C(=O)C[C@H](C)C(=O)O)[C@@H]1CC(=O)[C@@]2(C)C3=C(C(=O)C[C@]12C)[C@@]1(C)CCC(=O)C(C)(C)[C@@H]1C[C@@H]3O`, for which the EC50 in test [1] was 0.02 µM. Moreover, the ECmax in test [2] amounted to 0.78 µM.
Turning to `O=C1NC(=O)N(c2ccc(F)cc2)C(=O)/C1=C/c1cc(Br)ccc1OCc1cccc([N+](=O)[O-])c1`, the EC50 in test [1] was determined as 0.02 µM. In addition, in test [2], the ECmax turned out to be 1.05 µM.
Turning to `O=C(Nc1ccc(F)cc1)c1nnc(/C(Cl)=C\c2cccc([N+](=O)[O-])c2)s1`, the EC50 in test [1] was 0.005 µM. Further, the ECmax in test [2] amounted to 0.72 µM.
In the case of `O=C(Nc1ccccc1)c1nnc(/C(Cl)=C\c2cccc([N+](=O)[O-])c2)s1`, in test [2], the ECmax is 0.44 µM. The fold change (FC) in test [3] was 4.05.
For the molecule `COc1ccc([N+](=O)[O-])cc1/N=c1\ssc2c1-c1cc(C)c(C)cc1NC2(C)C`, the fold change (FC) in test [3] turned out to be 3.86.
For `COc1cc(/C=C2/C(=O)NC(=O)N(c3ccccc3)C2=O)cc(Br)c1OCc1ccc([N+](=O)[O-])cc1`, in test [2], the ECmax was 0.35 µM. In addition, in test [3], the fold change (FC) was found to be 4.07.
Regarding `O=C(Cc1ccc([N+](=O)[O-])cc1)NC[C@H](c1ccccc1Cl)c1c[nH]c2ccccc12`, in test [3], the fold change (FC) was found to be 2.51.
Take `Cc1ccc(C(=O)NN2C(=O)/C(=C\c3ccc(OC(=O)c4cccc([N+](=O)[O-])c4)cc3)SC2=S)cc1`: the fold change (FC) in test [3] amounted to 2.47.
`COc1ccc(C(=O)NC(=S)Nc2ccc(O)c(-c3nc4ccc(C)cc4o3)c2)cc1[N+](=O)[O-]`: the ECmax in test [2] was 0.21 µM. Further, the fold change (FC) in test [3] worked out at 2.47.
For `CC[C@@H](C)NS(=O)(=O)c1cc([N+](=O)[O-])ccc1Oc1c(C)c(C(=O)NC[C@@H]2CCCO2)nn1-c1cccc(C)c1C`, the EC50 in test [1] was found to be 0.002 µM. Moreover, in test [2], the ECmax amounted to 0.42 µM.
For `C/C(=N\Nc1ccc([N+](=O)[O-])cc1S(=O)(=O)Nc1ccccc1Cl)c1ccc2ccccc2c1O`, the ECmax in test [2] was 0.38 µM. For the same molecule, the fold change (FC) in test [3] was determined as 4.05.
With `COc1ccc(NC(=O)/C(=C\c2cccc([N+](=O)[O-])c2)NC(=O)c2ccc(F)cc2Cl)cc1OC`, the ECmax in test [2] amounted to 0.15 µM. Moreover, the fold change (FC) in test [3] is 1.94.
For the molecule `Cc1n[nH]c(C)c1CCc1nc2c3ccccc3nc(SCc3ccc([N+](=O)[O-])cc3)n2n1`, the fold change (FC) in test [4] turned out to be 2.2; in test [3] it was 1.23; in test [6] it was 2. Further, in test [2], the ECmax worked out at 0.25 µM. Moreover, in test [5], the result was Active.
Take `CCOC(=O)c1c(NC(=O)[C@H](C)Sc2nnc(CNC(=O)c3ccc(C)c([N+](=O)[O-])c3)n2CCc2ccccc2)sc2c1CCC2`: in test [2], the ECmax is 0.14 µM. In addition, in test [3], the fold change (FC) came out at 1.84.
As to `O=C(NCc1ccc(F)cc1)c1nnc(/C(Cl)=C\c2cccc([N+](=O)[O-])c2)s1`, the fold change (FC) in test [3] was determined as 1.73.
